Measurements from patent publication US20110136877A1, “2-PHENYL PHENOXYACETIC ACIDS USEFUL FOR TREATING INFLAMMATORY DISORDERS” (LIGAND PHARMACEUTICALS INC., priority 2008, published 2011).
pIC50: −log10 of the molar value. Where two headings read alike, the source gives them in different places.

Molecular target: T1, human CRTH2 (Homo sapiens, UniProt Q9Y5Y4)
T1 construct: expressed in transfected cells; membranes used
T1 sequence (Q9Y5Y4 1-395): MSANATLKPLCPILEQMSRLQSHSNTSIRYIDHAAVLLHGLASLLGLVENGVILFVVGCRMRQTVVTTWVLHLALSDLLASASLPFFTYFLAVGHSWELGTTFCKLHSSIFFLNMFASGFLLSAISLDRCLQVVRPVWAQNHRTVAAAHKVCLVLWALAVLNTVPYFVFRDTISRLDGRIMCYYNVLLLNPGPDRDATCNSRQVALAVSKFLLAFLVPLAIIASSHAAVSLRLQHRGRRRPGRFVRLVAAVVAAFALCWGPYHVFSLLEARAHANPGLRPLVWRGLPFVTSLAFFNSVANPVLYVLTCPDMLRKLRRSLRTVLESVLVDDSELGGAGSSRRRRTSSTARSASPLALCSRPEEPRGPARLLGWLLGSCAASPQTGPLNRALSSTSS
Assay: [35S]GTPγS binding assay (SPA)
Type: biochemical
Protocol: [^35S]GTPγS Binding Assay
SPA [^35S]GTPγS binding was performed on membranes from CHO-K1 cells stably expressing human CRTH2. To a white, clear-bottomed 384-well plate, 4 μg membrane protein was incubated in the binding buffer (20 mM HEPES, pH 7.4, 10 mM MgCl2, 300 mM NaCl, 0.2% BSA) with 60 nM DHK-PGD2, 500 pM [^35S]GTPγS, 10 μM GDP, and 100 μg wheat germ agglutinin-coupled SPA beads (GE Healthcare) with and without increasing concentrations of compounds. The final assay volume was 40 μL and contained 1% DMSO. Samples were incubated for 2 h at ambient temperature. Plates were centrifuged 5 min at 1500 rpm. Plates were read after an additional 4 h using the Trilux 1450 Microbeta (PerkinElmer) with a 30 sec/well reading time.

[1] = membranes from CHO-K1 cells stably expressing human CRTH2, 60 nM DHK-PGD2, read-out: CRTH2 GTPγS assay IC50

| Compound | pIC50 [1] | pIC50 |
| --- | --- | --- |
| CCCCNC(=O)CN(Cc1cccc(-c2ccccc2OCC(=O)O)c1)C(=O)OCCCC [Compound 6, {[3′-({(butoxy carbonyl)[2-(butylamino)-2-oxoethyl]amino}methyl)biphenyl-2-yl]oxy}acetic acid] | > 7.00 | – |
| CCCCNC(=O)CN(Cc1cccc(-c2cc(F)ccc2OCC(=O)O)c1)C(=O)OCCCC [Compound 7, {[3′-({(butoxy carbonyl)[2-(butylamino)-2-oxoethyl]amino}methyl)-5-fluorobiphenyl-2-yl]oxy}acetic acid] | > 7.00 | – |
| CCCCNC(=O)CN(Cc1cccc(-c2cc(C)ccc2OCC(=O)O)c1)C(=O)OCCCC [Compound 8, {[3′-({(butoxy carbonyl)[2-(butylamino)-2-oxoethyl]amino}methyl)-5-methylbiphenyl-2-yl]oxy}acetic acid] | > 7.00 | – |
| CCCCNC(=O)CN(Cc1cccc(-c2cc(C(F)(F)F)ccc2OCC(=O)O)c1)C(=O)OCCCC [Compound 9, {[3′-({(butoxy carbonyl)[2-(butylamino)-2-oxoethyl]amino}methyl)-5-(trifluoromethyl)biphenyl-2-yl]oxy}acetic acid] | > 7.00 | – |
| CCCCNC(=O)CN(Cc1cccc(-c2cc(Cl)ccc2OCC(=O)O)c1)C(=O)OCCCC [Compound 11, {[3′-({(butoxy carbonyl)[2-(butylamino)-2-oxoethyl]amino}methyl)-5-chlorobiphenyl-2-yl]oxy}acetic acid] | > 7.00 | – |
| CCCCNC(=O)CN(Cc1cccc(-c2ccccc2OCC(=O)O)c1)C(=O)Cc1ccccc1 [Compound 13, {[3′-{[[2-(butylamino)-2-oxoethyl](phenylacetyl)amino]methyl}-biphenyl-2-yl]oxy}acetic acid] | > 7.00 | – |
| CCCCOC(=O)N(C)Cc1cccc(-c2cc(C(F)(F)F)ccc2OCC(=O)O)c1 [Compound 18, {[3′-{[(butoxycarbonyl)(methyl)amino]methyl}-5-(trifluoromethyl)biphenyl-2-yl]oxy}acetic acid] | > 7.00 | – |
| CCCCOC(=O)N(CCCC)Cc1cccc(-c2cc(C(F)(F)F)ccc2OCC(=O)O)c1 [Compound 19, {[3′-{[(butoxycarbonyl)(butyl)amino]methyl}-5-(trifluoromethyl)biphenyl-2-yl]oxy}acetic acid] | > 7.00 | – |
| CCCCOC(=O)N(CC(=O)NC)Cc1cccc(-c2cc(C(F)(F)F)ccc2OCC(=O)O)c1 [Compound 20, {[3′-({(butoxycarbonyl) [2-(methylamino)-2-oxoethyl]amino}methyl)-5-(trifluoromethyl)biphenyl-2-yl]oxy}acetic acid] | > 7.00 | – |
| CNC(=O)CN(Cc1cccc(-c2cc(C(F)(F)F)ccc2OCC(=O)O)c1)C(C)=O [Compound 21, {[3′-({(acetyl)[2-(methylamino)-2-oxoethyl]amino}methyl)-5-(trifluoromethyl)biphenyl-2-yl]oxy}acetic acid] | 6.00 to 7.00 | – |
| CC(=O)N(Cc1cccc(-c2cc(C(F)(F)F)ccc2OCC(=O)O)c1)c1ccccc1 [Compound 22, {[3′-{[acetyl(phenyl)amino]methyl}-5-(trifluoromethyl)biphenyl-2-yl]oxy}acetic acid] | 6.00 to 7.00 | – |
| CN(Cc1cccc(-c2cc(C(F)(F)F)ccc2OCC(=O)O)c1)C(=O)c1ccccc1 [Compound 23, {[3′-{[methyl(phenylcarbonyl)amino]methyl}-5-(trifluoromethyl)biphenyl-2-yl]oxy}acetic acid] | 6.00 to 7.00 | – |
| CN(Cc1cccc(-c2cc(C(F)(F)F)ccc2OCC(=O)O)c1)C(=O)Oc1ccccc1 [Compound 24, {[3′-{[methyl(phenoxycarbonyl)amino]methyl}-5-(trifluoromethyl)biphenyl-2-yl]oxy}acetic acid] | – | 6.00 to 7.00 |
| CCCCOC(=O)N(Cc1cccc(-c2cc(C(F)(F)F)ccc2OCC(=O)O)c1)c1ccccc1 [Compound 25, {[3′-{[(butoxycarbonyl)(phenyl)amino]methyl}-5-(trifluoromethyl)biphenyl-2-yl]oxy}acetic acid] | 6.00 to 7.00 | – |
| CCCCOC(=O)N(Cc1cccc(-c2cc(C(F)(F)F)ccc2OCC(=O)O)c1)Cc1nccs1 [Compound 27, {[3′-{[(butoxycarbonyl)(1,3-thiazol-2-ylmethyl)amino]methyl}-5-(trifluoromethyl)biphenyl-2-yl]oxy}acetic acid] | > 7.00 | – |
| CN(Cc1cccc(-c2cc(C(F)(F)F)ccc2OCC(=O)O)c1)C(=O)Nc1ccccc1 [Compound 28, {[3′-{[(anilinocarbonyl)(methyl)amino]methyl}-5-(trifluoromethyl)biphenyl-2-yl]oxy}acetic acid] | 6.00 to 7.00 | – |
| CN(Cc1cccc(-c2cc(C(F)(F)F)ccc2OCC(=O)O)c1)C(=O)Nc1cccnc1 [Compound 29] | 6.00 to 7.00 | – |
| CCCCNC(=O)N(C)Cc1cccc(-c2cc(C(F)(F)F)ccc2OCC(=O)O)c1 [Compound 30, {[3′-{[(butylaminocarbonyl)(methyl)amino]methyl}-5-(trifluoromethyl)biphenyl-2-yl]oxy}acetic acid] | > 7.00 | – |
| CN(Cc1cccc(-c2cc(C(F)(F)F)ccc2OCC(=O)O)c1)C(=O)c1cccnc1 [Compound 32, {[3′-{[methyl(pyridine-3-ylcarbonyl)amino]methyl}-5-(trifluoromethyl)biphenyl-2-yl]oxy}acetic acid] | > 7.00 | – |
| CN(Cc1cccc(-c2cc(C(F)(F)F)ccc2OCC(=O)O)c1)S(=O)(=O)c1ccccc1 [Compound 33, {[3′-{[(benzensulfonyl)(methyl)amino]methyl}-5-(trifluoromethyl)biphenyl-2-yl]oxy}acetic acid] | 6.00 to 7.00 | – |
| CN(Cc1cccc(-c2cc(C(F)(F)F)ccc2OCC(=O)O)c1)S(=O)(=O)c1cccnc1 [Compound 34, {[3′-{[(pyridine-3-ylsulfonyl)(methyl)amino]methyl}-5-(trifluoromethyl)biphenyl-2-yl]oxy}acetic acid] | 6.00 to 7.00 | – |
| CCCCNC(=O)CN(CCc1ccc(-c2ccccc2OCC(=O)O)cc1)C(=O)OCCCC [Compound 36, {[4′-({(butoxy carbonyl)[2-(butylamino)-2-oxoethyl]amino}ethyl)biphenyl-2-yl]oxy}acetic acid] | > 7.00 | – |
